Source: ChEMBL document CHEMBL4308841, “Synthesis, in vitro antiproliferative activity, and kinase inhibitory effects of pyrazole-containing diarylureas and diarylamides” (Eur J Med Chem, 2018)

Columns and labels:
[1] = tested on: SF-295; assay: Growth inhibition of human SF295 cells assessed as cell growth at 100 uM incubated for 48 hrs by sulforhodamine B assay relative to control; assay type: functional; conditions: SF-295, 48 h, read-out: Activity
[2] = tested on: Malme-3M; assay: Growth inhibition of human MALME-3M cells assessed as cell growth at 1 uM incubated for 48 hrs by sulforhodamine B assay relative to control; assay type: functional; conditions: read-out: Activity
[3] = tested on: CAKI-1; assay: Growth inhibition of human Caki1 cells incubated for 48 hrs by sulforhodamine B assay; assay type: functional, cell-based; conditions: CAKI-1, 48 h
[4] = tested on: HOP-62; assay: Growth inhibition of human HOP62 cells assessed as cell growth at 100 uM incubated for 48 hrs by sulforhodamine B assay relative to control; assay type: functional; conditions: HOP-62, 48 h, read-out: Activity
[5] = tested on: HCC 2998; assay: Growth inhibition of human HCC2998 cells assessed as cell growth at 0.1 uM incubated for 48 hrs by sulforhodamine B assay relative to control; assay type: functional; conditions: HCC 2998, 48 h, read-out: Activity
[6] = tested on: K562; assay: Growth inhibition of human K562 cells assessed as cell growth at 1 uM incubated for 48 hrs by sulforhodamine B assay relative to control; assay type: functional; conditions: K562, 48 h, read-out: Activity
[7] = tested on: SF-539; assay: Growth inhibition of human SF539 cells assessed as cell growth at 1 uM incubated for 48 hrs by sulforhodamine B assay relative to control; assay type: functional; conditions: SF-539, 48 h, read-out: Activity
[8] = tested on: HT-29; assay: Growth inhibition of human HT-29 cells assessed as cell growth at 1 uM incubated for 48 hrs by sulforhodamine B assay relative to control; assay type: functional; conditions: HT-29, 48 h, read-out: Activity
[9] = tested on: M14; assay: Growth inhibition of human M14 cells incubated for 48 hrs by sulforhodamine B assay; assay type: functional, cell-based; conditions: M14, 48 h
[10] = tested on: NCI-H23; assay: Growth inhibition of human NCI-H23 cells assessed as cell growth at 1 uM incubated for 48 hrs by sulforhodamine B assay relative to control; assay type: functional; conditions: NCI-H23, 48 h, read-out: Activity
[11] = tested on: HL-60(TB); assay: Growth inhibition of human HL-60(TB) cells incubated for 48 hrs by sulforhodamine B assay; assay type: functional, cell-based; conditions: HL-60, 48 h
[12] = tested on: HOP-62; assay: Growth inhibition of human HOP62 cells assessed as cell growth at 0.01 uM incubated for 48 hrs by sulforhodamine B assay relative to control; assay type: functional; conditions: HOP-62, 48 h, read-out: Activity
[13] = tested on: UACC-257; assay: Growth inhibition of human UACC257 cells assessed as cell growth at 1 uM incubated for 48 hrs by sulforhodamine B assay relative to control; assay type: functional; conditions: UACC-257, 48 h, read-out: Activity
[14] = tested on: SK-MEL-5; assay: Growth inhibition of human SK-MEL-5 cells incubated for 48 hrs by sulforhodamine B assay; assay type: functional, cell-based; conditions: SK-MEL-5, 48 h
[15] = tested on: MDA-MB-231; assay: Growth inhibition of human MDA-MB-231 cells assessed as cell growth at 0.01 uM incubated for 48 hrs by sulforhodamine B assay relative to control; assay type: functional; conditions: MDA-MB-231, 48 h, read-out: Activity
[16] = tested on: MDA-MB-231; assay: Growth inhibition of human MDA-MB-231 cells assessed as cell growth at 0.1 uM incubated for 48 hrs by sulforhodamine B assay relative to control; assay type: functional; conditions: MDA-MB-231, 48 h, read-out: Activity
[17] = tested on: SNB-19; assay: Growth inhibition of human SNB19 cells assessed as cell growth at 0.01 uM incubated for 48 hrs by sulforhodamine B assay relative to control; assay type: functional; conditions: SNB-19, 48 h, read-out: Activity
[18] = tested on: SR; assay: Growth inhibition of human SR cells incubated for 48 hrs by sulforhodamine B assay; assay type: functional, cell-based
[19] = tested on: HL-60(TB); assay: Growth inhibition of human HL-60(TB) cells assessed as cell growth at 100 uM incubated for 48 hrs by sulforhodamine B assay relative to control; assay type: functional; conditions: HL-60, 48 h, read-out: Activity
[20] = tested on: MDA-MB-435; assay: Growth inhibition of human MDA-MB-435 cells assessed as cell growth at 100 uM incubated for 48 hrs by sulforhodamine B assay relative to control; assay type: functional; conditions: MDA-MB-435, 48 h, read-out: Activity
[21] = tested on: OVCAR-8; assay: Growth inhibition of human OVCAR8 cells assessed as cell growth at 100 uM incubated for 48 hrs by sulforhodamine B assay relative to control; assay type: functional; conditions: OVCAR-8, 48 h, read-out: Activity
[22] = tested on: U-251; assay: Growth inhibition of human U251 cells assessed as cell growth at 0.01 uM incubated for 48 hrs by sulforhodamine B assay relative to control; assay type: functional; conditions: U-251, 48 h, read-out: Activity
[23] = tested on: SR; assay: Growth inhibition of human SR cells assessed as cell growth at 100 uM incubated for 48 hrs by sulforhodamine B assay relative to control; assay type: functional; conditions: read-out: Activity
[24] = tested on: OVCAR-5; assay: Growth inhibition of human OVCAR5 cells assessed as cell growth at 0.1 uM incubated for 48 hrs by sulforhodamine B assay relative to control; assay type: functional; conditions: OVCAR-5, 48 h, read-out: Activity
[25] = tested on: ACHN; assay: Growth inhibition of human ACHN cells incubated for 48 hrs by sulforhodamine B assay; assay type: functional, cell-based
[26] = tested on: MOLT-4; assay: Growth inhibition of human MOLT4 cells assessed as cell growth at 100 uM incubated for 48 hrs by sulforhodamine B assay relative to control; assay type: functional; conditions: MOLT-4, 48 h, read-out: Activity
[27] = tested on: IGROV-1; assay: Growth inhibition of human IGROV1 cells incubated for 48 hrs by sulforhodamine B assay; assay type: functional, cell-based; conditions: IGROV-1, 48 h
[28] = read-out: pLC50 (the source's name) (converted)
[29] = read-out: LC50 (the source's name)

Structure (SMILES): COc1cc(Cl)cc(-c2nn(-c3cccc(NC(=O)Nc4cc(C(F)(F)F)cc(C(F)(F)F)c4)c3)cc2-c2ccncc2)c1
- growth at 100 µM [1]: -63%
- growth at 1 µM [2]: 36%
- IC50 [3]: 420 nM
- GI50 ([3]; read-out: GI50): 420 nM
- TGI ([3]; read-out: TGI): 4750 nM
- GI50 ([3]; read-out: pGI50 (converted)): 417 nM
- CC50 [3, 28]: 61700 nM
- TGI ([3]; read-out: pTGI (converted)): 4790 nM
- growth at 100 µM [4]: -60%
- growth at 0.1 µM [5]: 105%
- growth at 1 µM [6]: 18%
- growth at 1 µM [7]: 59%
- growth at 1 µM [8]: 23%
- IC50 [9]: 440 nM
- GI50 ([9]; read-out: GI50): 442 nM
- CC50 [9, 29]: 93.9 nM
- TGI ([9]; read-out: TGI): 2160 nM
- GI50 ([9]; read-out: pGI50 (converted)): 447 nM
- CC50 [9, 28]: 9330 nM
- TGI ([9]; read-out: pTGI (converted)): 2140 nM
- growth at 1 µM [10]: 8%
- IC50 [11]: 330 nM
- GI50 ([11]; read-out: GI50): 370 nM
- LC50 ([11]; read-out: LC50): > 100000 nM
- TGI ([11]; read-out: TGI): 3240 nM
- GI50 ([11]; read-out: pGI50 (converted)): 324 nM
- LC50 ([11]; read-out: pLC50 (converted)): > 100000 nM
- TGI ([11]; read-out: pTGI (converted)): 3240 nM
- growth at 0.01 µM [12]: 93%
- growth at 1 µM [13]: 23%
- IC50 [14]: 1140 nM
- GI50 ([14]; read-out: GI50): 1140 nM
- CC50 [14, 29]: 50.4 nM
- TGI ([14]; read-out: TGI): 2390 nM
- GI50 ([14]; read-out: pGI50 (converted)): 1150 nM
- CC50 [14, 28]: 5010 nM
- TGI ([14]; read-out: pTGI (converted)): 2400 nM
- growth at 0.01 µM [15]: 97%
- growth at 0.1 µM [16]: 90%
- growth at 0.01 µM [17]: 89%
- IC50 [18]: 450 nM
- GI50 ([18]; read-out: GI50): 452 nM
- CC50 [18, 29]: > 100000 nM
- TGI ([18]; read-out: TGI): 3310 nM
- GI50 ([18]; read-out: pGI50 (converted)): 447 nM
- CC50 [18, 28]: > 100000 nM
- TGI ([18]; read-out: pTGI (converted)): 3310 nM
- growth at 100 µM [19]: -8%
- growth at 100 µM [20]: -81%
- growth at 100 µM [21]: -62%
- growth at 0.01 µM [22]: 96%
- growth at 100 µM [23]: -8%
- growth at 0.1 µM [24]: 95%
- IC50 [25]: 400 nM
- GI50 ([25]; read-out: GI50): 397 nM
- CC50 [25, 29]: > 100000 nM
- TGI ([25]; read-out: TGI): 12500 nM
- GI50 ([25]; read-out: pGI50 (converted)): 398 nM
- CC50 [25, 28]: > 100000 nM
- TGI ([25]; read-out: pTGI (converted)): 12600 nM
- growth at 100 µM [26]: -34%
- IC50 [27]: 570 nM
- GI50 ([27]; read-out: GI50): 572 nM
- CC50 [27, 29]: > 100000 nM
- TGI ([27]; read-out: TGI): 12600 nM
- GI50 ([27]; read-out: pGI50 (converted)): 575 nM
- CC50 [27, 28]: > 100000 nM
- TGI ([27]; read-out: pTGI (converted)): 12600 nM
